Assay results published in ChEMBL document CHEMBL4418495, “Entpd5 inhibitors” (2012).
Activity calls are given as the source filed them. The rule behind the calls is not given here.

Experiments:
[1] = target: T1, Uridylate kinase (Escherichia coli (strain K12)) (UniProt P0A7E9); assay: Inhibition of recombinant Escherichia coli UMP kinase pyrH catalyzed UMP phosphorylation in presence of GTP and ATP incubated for 1 hr by luminescence based assay
T1 sequence (whole entry): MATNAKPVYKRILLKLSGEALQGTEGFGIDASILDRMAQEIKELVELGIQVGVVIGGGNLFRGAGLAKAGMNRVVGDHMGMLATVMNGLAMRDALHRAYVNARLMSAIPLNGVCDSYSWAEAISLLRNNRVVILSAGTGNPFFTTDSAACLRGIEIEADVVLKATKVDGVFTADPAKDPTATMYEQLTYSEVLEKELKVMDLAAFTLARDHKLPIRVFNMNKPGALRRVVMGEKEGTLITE

[2] = target: T2, Nucleoside diphosphate phosphatase ENTPD5 (Homo sapiens) (UniProt O75356); assay: Inhibition of human recombinant ENTPD5 expressed in insect cells assessed as reduction in UDP hydrolysis up to 10 uM incubated for 1 hr in presence of UMP, GTP and ATP by Escherichia coli UMP kinase pyrH catalyzed UMP phosphorylation coupled luciferase assay
T2 sequence (whole entry): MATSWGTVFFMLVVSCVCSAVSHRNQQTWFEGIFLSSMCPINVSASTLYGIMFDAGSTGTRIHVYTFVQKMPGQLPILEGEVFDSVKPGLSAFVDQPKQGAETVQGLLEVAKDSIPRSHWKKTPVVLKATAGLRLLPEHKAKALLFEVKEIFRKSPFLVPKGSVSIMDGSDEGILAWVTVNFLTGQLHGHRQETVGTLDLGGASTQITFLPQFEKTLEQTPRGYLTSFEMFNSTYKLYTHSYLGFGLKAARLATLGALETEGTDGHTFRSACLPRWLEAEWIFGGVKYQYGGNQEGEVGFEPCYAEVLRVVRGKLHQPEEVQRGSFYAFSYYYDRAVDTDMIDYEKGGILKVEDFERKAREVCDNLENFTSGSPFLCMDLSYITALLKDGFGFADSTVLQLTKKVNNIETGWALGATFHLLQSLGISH

[3] = target: T2, Nucleoside diphosphate phosphatase ENTPD5 (Homo sapiens); assay: Inhibition of human recombinant ENTPD5 expressed in insect cells assessed as reduction in reduction in UDP hydrolysis by measuring inorganic phosphate release incubated for 1 hr by malachite green based assay
[4] = target: T2, Nucleoside diphosphate phosphatase ENTPD5 (Homo sapiens); assay: Inhibition of human recombinant ENTPD5 expressed in insect cells assessed as reduction in UDP hydrolysis at 1 uM incubated for 1 hr in presence of UMP, GTP and ATP by Escherichia coli UMP kinase pyrH catalyzed UMP phosphorylation coupled luciferase assay

| SMILES | inhibition [1] | inhibition [2] | inhibition [3] | inhibition [4] |
| --- | --- | --- | --- | --- |
| O=C1NC(=S)NC(=O)C1=Cc1cn(-c2ccccc2)nc1-c1cc2c(ccc3ccccc32)oc1=O | inactive | Dose-dependent effect | Active | Active |
| O=C(CSc1nc2c([nH]c3ccccc32)c(=O)n1-c1ccccc1)N1CCN(c2ccccc2)CC1 | inactive | Dose-dependent effect | Active | Active |
| O=S(=O)(c1ccc2ccccc2c1)N(CCc1csc2nc(-c3ccc4ccccc4c3)cn12)Cc1ccco1 | inactive | Dose-dependent effect | Active | Active |
| O=C1N=C2C=CC(I)=CC2C1NNc1cccc2cccnc12 (configuration not stated) | inactive | Dose-dependent effect | Active | Active |
| O=S(=O)(c1cccc2cccnc12)N(CCc1csc2nc(-c3ccc4ccccc4c3)cn12)Cc1ccco1 | inactive | Dose-dependent effect | Active | Active |
| S=C(NCc1ccccc1)Nc1ccc2nc(-c3ccco3)c(-c3ccco3)nc2c1 | inactive | Dose-dependent effect | Active | Active |
| O=C1/C(=C/c2ccc(O)c(O)c2)SC(=S)N1c1ccc([N+](=O)[O-])cc1 | inactive | Dose-dependent effect | Active | Active |
| CCN1C(=O)/C(=C/c2cccn2C)C(=O)NC1=S | inactive | Dose-dependent effect | Active | Active |
| COc1ccc2c(c1)C1C=CCC1C(c1ccc([N+](=O)[O-])cc1)N2 (configuration not stated) | inactive | Dose-dependent effect | Active | Active |
| O=C(C(c1ccccc1)c1ccccc1)N(CCc1csc2nc(-c3ccc4ccccc4c3)cn12)Cc1ccco1 | inactive | Dose-dependent effect | Active | Active |
| O=C1Nc2ccc(Br)cc2/C1=C1/SC(=S)N(c2ccc(Cl)cc2)C1=O | inactive | Dose-dependent effect | Active | Active |
| N#CC(c1ccc(Cl)cc1)c1c(Cl)cc(-n2ncc(=O)[nH]c2=O)cc1Cl (configuration not stated) | inactive | Dose-dependent effect | Active | Active |
| O=C(NC12CC3CC(CC(C3)C1)C2)N1CCN(C(=O)c2ccco2)CC1 | inactive | Dose-dependent effect | Active | Active |
| COc1cccc(C(c2cc(C(C)(C)C)c(O)c(C(C)(C)C)c2)N2CCOCC2)c1OC (configuration not stated) | inactive | Dose-dependent effect | Active | Active |
| O=C(NCCNc1ccc([N+](=O)[O-])cc1)c1ccc(CSc2nnnn2-c2ccccc2)cc1 | inactive | Dose-dependent effect | Active | Active |
| O=C(O)C1=CC(C(c2ccc(O)c(C(=O)O)c2)c2ccc(O)c(C(=O)O)c2)C=CC1=O (configuration not stated) | inactive | Dose-dependent effect | Active | Active |
| N#Cc1ccccc1COc1ccc(/C=C2/SC(=S)NC2=O)cc1Br | inactive | Dose-dependent effect | Active | Active |

| SMILES | inhibition [1] | inhibition [2] | inhibition [3] | inhibition [4] |
| --- | --- | --- | --- | --- |
| O=C1NC(=S)NC(=O)C1=Cc1cn(-c2ccccc2)nc1-c1ccccc1 | inactive | Dose-dependent effect | Active | Active |
| O=C(Nc1ccc(Oc2ccc(NC(=O)c3cccs3)cc2)cc1)c1cccs1 | inactive | Dose-dependent effect | Active | Active |
| CCCCCCCCCCCCCCCC[N+](C)(C)CCN(Cc1ccc(OC)cc1)c1ncccn1 | inactive | Dose-dependent effect | Active | Active |
| O=C1OC(c2ccccc2)OC(=O)C1=Cc1ccc(-c2cc([N+](=O)[O-])ccc2Cl)o1 (configuration not stated) | inactive | Dose-dependent effect | Active | Active |
| N#CC1=C(N)NC(SCC(=O)c2cc3ccccc3oc2=O)=C(C#N)C1=C1C=CC(=O)C=C1 | inactive | Dose-dependent effect | Active | Active |
| CCc1ccc(NS(=O)(=O)c2ccc(N3C(=O)c4cc([N+](=O)[O-])cc5cc([N+](=O)[O-])cc(c45)C3=O)cc2)cc1 | inactive | Dose-dependent effect | Active | Active |
| O=[N+]([O-])c1ccc(NCc2ccco2)c2nonc12 | inactive | Dose-dependent effect | Active | Active |
| COC(=O)Cn1cc(/C=C2\C(=O)NC(=S)N(c3ccc(Cl)cc3)C2=O)c2ccccc21 | inactive | Dose-dependent effect | Active | Active |
| CN1C(=O)c2ccc(NC(=S)NC(=O)CC34CC5CC(CC(C5)C3)C4)cc2C1=O | inactive | Dose-dependent effect | Active | Active |
| Cc1cc(/C=C2\C(=O)NC(=S)N(c3cccc(Cl)c3)C2=O)c(C)n1-c1ccc(Br)cc1 | inactive | Dose-dependent effect | Active | Active |
| CC(C)(C)c1cc(CN(CCO)CCO)cc(C(C)(C)C)c1O | inactive | Dose-dependent effect | Active | Active |
| O=C1NC(=S)N(c2ccc(Br)cc2)C(=O)/C1=C/c1ccc(-c2ccc(F)cc2)o1 | inactive | Dose-dependent effect | Active | Active |
| O=C(NC(=S)Nc1cc(Cl)c(O)c(Cl)c1)c1cc2ccccc2o1 | inactive | Dose-dependent effect | Active | Active |
| COc1ccc(-n2cccc2/C=C2\C(=O)NC(=S)N(c3ccc(C)c(C)c3)C2=O)cc1 | inactive | Dose-dependent effect | Active | Active |
| O=C1C=CC(=O)c2c1c(-c1ccccc1)nn2-c1ccccc1 | inactive | Dose-dependent effect | Active | Active |
| O=c1cc(-c2ccco2)nc(-c2ccco2)o1 | inactive | Dose-dependent effect | Active | Active |
